Test results taken from publication PMC3726930, “Synthesis and Biological Activity of N-Sulfonyltripeptides with C-Terminal Arginine as Potential Serine Proteases Inhibitors” (International Journal of Peptide Research and Therapeutics, 2012).
Like-named read-outs stand apart in the source and are kept apart here. Where a SMILES comes first, the peptide text is derived from it. Where no end group is shown, it is not given here. [ ]: non-standard residue; d: D form. The star is where a group is joined. Nva = CCC[C@H](N)C(=O)O; Ms = CS(=O)(=O)*; CH2Cl = ClC*

How the values were obtained:
urokinase [1] = target: T1, urokinase (Homo sapiens, UniProt P00749); test: Amidolytic activity of urokinase, substrate S-2444; type: biochemical; conditions: Ki calculated from IC50 by Cheng-Prusoff; triplicate; n.i. = no effect at maximum concentration 20 mM; read-out: Ki ± SD Urokinase S-2444
Method: Determination of amidolytic activity was performed as previously described (Okada et al. [1988]). The detailed description of the method is given below. The buffer and the enzyme solution included: • tris buffer—0.6 ml (pH 8.8),
enzyme: urokinase (50 U/ml),
synthetic substrate: S-2444 (0.1 ml, 3 mM); • (b) tris buffer—0.5 ml (pH 8.4),
(§1) Buffer and 0.1 ml of enzyme solution was added to 0.2 ml of examined compound dissolved in 0.15 M NaCl (1–17) (as control 0.15 M NaCl). The mixture was incubated for 3 min at 37 °C, then the synthetic substrate was added. After 20 min of incubation, the reaction was stopped by adding 0.1 ml of 50 % acetic acid, and the absorbance of the released p-nitroaniline was measured at 405 nm (Spekol 1300, AnalyticJena). Every value represents the average of the triplicate determination. IC50 value was considered as the concentration of the inhibitor, which decreased the absorbance at 405 nm by 50 %, compared with the absorbance measured under the same conditions without the inhibitor. Ki was calculated from IC50 based on Cheng–Prusoff equation (Cheng and Prusoff [1973]).

thrombin = thrombin (Bos taurus, UniProt P00735); test: Amidolytic activity of thrombin, substrate S-2238; type: biochemical; conditions: Ki calculated from IC50 by Cheng-Prusoff, n.i. = no effect at maximum concentration 20 mM, read-out: Ki ± SD Thrombin
Method: (§2) Determination of amidolytic activity was performed as previously described (Okada et al. [1988]). The detailed description of the method is given below. The buffer and the enzyme solution included: • tris buffer—0.6 ml (pH 8.8), […]
as §1, with “synthetic substrate: S-2444 (0.1 ml, 3 mM); • (b) tris buffer—0.5 ml (pH 8.4), enzyme: thrombin (1 U/ml), synthetic substrate: S-2238 (0.2 ml, 0.75 mM); • (c) tris buffer—0.5 ml (pH 7.4), Buffer” for “Buffer”

MDA-MB-231 cells = conditions: 24 h
DLD cells = conditions: 24 h
plasmin [2] = target: T2, plasmin (Homo sapiens, UniProt P00747); test: Amidolytic activity of plasmin, substrate S-2251; type: biochemical; conditions: Ki calculated from IC50 by Cheng-Prusoff; triplicate; read-out: Ki ± SD Plasmin S-2251
T2 construct: converts the pro-enzyme plasminogen into its active form plasmin; purchased Chromogenix (Milano, Italy)
Method: as §2
as §1, with “synthetic substrate: S-2238 (0.2 ml, 0.75 mM); • (c) tris buffer—0.5 ml (pH 7.4), enzyme: plasmin (0.4 U/ml), synthetic substrate: S-2251 (0.2 ml, 3 mM); • (d) […] buffer—0.5 ml (pH 7.5), Buffer” for “Buffer”

plasmin [3] = target: T2, plasmin; test: SPRI, immobilised inhibitor interacting with plasmin; type: binding; conditions: plasmin 1 ng/ml
Source text: Gold chips were manufactured as described in previous papers (Gorodkiewicz [2009]; Gorodkiewicz and Regulska [2010]; Gorodkiewicz et al. [2011]). The gold surface of the chip was covered with photopolymer and hydrophobic paint. 9 × 12 free gold surfaces were obtained. Using this chip, nine different solutions can be simultaneously measured without mixing the tested solutions. Twelve single SPRI measurements can be performed from one solution.
Chips were rinsed with ethanol and water and dried under a stream of nitrogen. They were then immersed in 20 mM cysteamine ethanolic solutions for at least 2 h. The chips were then rinsed with ethanol and water and dried under a stream of nitrogen.
Among the synthesised compounds, four were selected for the examination of the interaction between the enzyme and the inhibitor. They were acids of peptides 10, 12, 13 and 14. Acids can be bound to a gold surface via cysteamine. […]
SPRI measurements with an application of an enzyme array were performed as described in previous papers (Gorodkiewicz [2009]; Gorodkiewicz and Regulska [2010]; Gorodkiewicz et al. [2011]). Briefly, the measurements were performed at a fixed angle of incident light and the reflectivity was simultaneously measured across an entire chip surface. […] The signal was measured twice on the basis of registered images, after immobilisation of enzymes and then after interaction inhibitors. […]

urokinase [4] = target: T1, urokinase; test: Urokinase inhibition, literature or earlier data; type: biochemical; conditions: author's unpublished data, corresponding to earlier IC50 values
urokinase [5] = target: T1, urokinase; conditions: cited from earlier work
plasmin [6] = target: T2, plasmin; conditions: ref Lynas et al. [2001]; cited from earlier work
[7] = ref Markowska et al. [2008], read-out: IC50 urokinase

T2 sequence (P00747 581-810 limits assumed): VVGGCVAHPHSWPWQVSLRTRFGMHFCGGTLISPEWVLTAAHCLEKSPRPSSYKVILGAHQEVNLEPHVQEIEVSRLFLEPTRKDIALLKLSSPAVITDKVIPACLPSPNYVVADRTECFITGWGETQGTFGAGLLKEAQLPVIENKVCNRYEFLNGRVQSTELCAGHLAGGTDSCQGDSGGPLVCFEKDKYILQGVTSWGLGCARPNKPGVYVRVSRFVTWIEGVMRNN
T2 sequence (P00747 97-580 partner limits assumed): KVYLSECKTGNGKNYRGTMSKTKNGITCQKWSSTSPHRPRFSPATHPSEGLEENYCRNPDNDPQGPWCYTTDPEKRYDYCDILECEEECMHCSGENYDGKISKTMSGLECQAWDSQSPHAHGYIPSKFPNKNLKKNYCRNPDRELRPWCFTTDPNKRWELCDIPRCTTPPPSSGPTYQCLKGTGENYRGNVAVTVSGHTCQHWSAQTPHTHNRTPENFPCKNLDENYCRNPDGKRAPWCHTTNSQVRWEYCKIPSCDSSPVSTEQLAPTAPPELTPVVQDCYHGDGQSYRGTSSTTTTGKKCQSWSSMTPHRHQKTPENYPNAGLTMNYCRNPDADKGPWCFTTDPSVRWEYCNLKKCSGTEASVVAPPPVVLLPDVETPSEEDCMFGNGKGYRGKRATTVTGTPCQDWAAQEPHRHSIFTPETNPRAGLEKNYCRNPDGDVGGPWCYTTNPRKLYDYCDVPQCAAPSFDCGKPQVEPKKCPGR

| Ki (urokinase [1]) [µM] | Ki (thrombin) [µM] | IC50 (MDA-MB-231 cells) [µM] | IC50 (DLD cells) [µM] | Ki (plasmin [2]) [µM] | Molecule | further results |
| --- | --- | --- | --- | --- | --- | --- |
| > 20000 | > 20000 | 480 | 460 | 2 ± 0.16 | C[C@H](NC(=O)[C@@H](CO)NS(=O)(=O)Cc1ccccc1)C(=O)N[C@@H](CCCNC(=N)N)C(=O)NCCCCCN [Compound 1, PhCH2SO2-D-Ser-Ala-Arg-NH-(CH2)5-NH2] | – |
| > 20000 | > 20000 | 480 | 390 | 90.9 ± 7.27 | CC(C)c1cc(C(C)C)c(S(=O)(=O)N[C@H](CO)C(=O)N[C@@H](C)C(=O)N[C@@H](CCCNC(=N)N)C(=O)NCCCCCN)c(C(C)C)c1 [Compound 2, 2,4,6-TriiPrPhSO2-D-Ser-Ala-Arg-NH-(CH2)5-NH2] | – |
| > 20000 | > 20000 | 580 | 320 | 58.2 ± 4.65 | N=C(N)NCCC[C@H](NC(=O)CNC(=O)[C@@H](CO)NS(=O)(=O)Cc1ccccc1)C(=O)NCCCCCN [Compound 4, PhCH2SO2-D-Ser-Gly-Arg-NH-(CH2)5-NH2] | – |
| 44.6 ± 3.57 | > 20000 | 510 | 150 | 56.4 ± 4.51 | CC(C)c1cc(C(C)C)c(S(=O)(=O)N[C@H](CO)C(=O)NCC(=O)N[C@@H](CCCNC(=N)N)C(=O)NCCCCCN)c(C(C)C)c1 [Compound 5, 2,4,6-TriiPrPhSO2-D-Ser-Gly-Arg-NH-(CH2)5-NH2] | – |
| > 20000 | > 20000 | 680 | 340 | 112 ± 8.95 | CCC[C@H](NC(=O)[C@@H](CO)NS(=O)(=O)Cc1ccccc1)C(=O)N[C@@H](CCCNC(=N)N)C(=O)NCCCCCN [Compound 7, PhCH2SO2-D-Ser-NVa-Arg-NH-(CH2)5-NH2] | – |
| > 20000 | > 20000 | 660 | 330 | 52.7 ± 4.22 | CCC[C@H](NC(=O)[C@@H](CO)NS(=O)(=O)c1c(C(C)C)cc(C(C)C)cc1C(C)C)C(=O)N[C@@H](CCCNC(=N)N)C(=O)NCCCCCN [Compound 8, 2,4,6-TriiPrPhSO2-D-Ser-NVa-Arg-NH-(CH2)5-NH2] | – |
| 5.4 ± 0.43 | 0.97 ± 0.08 | 640 | 5 | 103 ± 8.22 | N=C(N)NCCC[C@H](NC(=O)CNC(=O)[C@@H](CO)NS(=O)(=O)Cc1ccccc1)C(=O)O [Compound 10, PhCH2SO2-D-Ser-Gly-Arg-OH] | – |
| 15.8 ± 1.27 | > 20000 | 570 | 110 | 89.1 ± 7.13 | CC(C)c1cc(C(C)C)c(S(=O)(=O)N[C@H](CO)C(=O)NCC(=O)N[C@@H](CCCNC(=N)N)C(=O)O)c(C(C)C)c1 [Compound 11, 2,4,6-TriiPrPhSO2-D-Ser-Gly-Arg-OH] | – |
| 11.2 ± 0.89 | > 20000 | 620 | 230 | 10 ± 0.8 | CS(=O)(=O)N[C@H](CO)C(=O)NCC(=O)N[C@@H](CCCNC(=N)N)C(=O)O [Compound 12, CH3PhSO2-D-Ser-Gly-Arg-OH] (Ms-[dS]-Gly-Arg-OH; N-terminus and C-terminus assumed) | Inhibitor concentration above which the SPRI signal plateaus (plasmin) (plasmin [3]; Langmuir isotherm type curve): above 0.02 mM; SPRI signal for plasmin after interaction with inhibitor (plasmin [3]; inhibitor 0.002-0.2 mM): positive SPRI signal |
| > 20000 | 0.82 ± 0.06 | 650 | 180 | 13.6 ± 1.09 | CCC[C@H](NC(=O)[C@@H](CO)NS(=O)(=O)Cc1ccccc1)C(=O)N[C@@H](CCCNC(=N)N)C(=O)O [Compound 13, PhCH2SO2-D-Ser-NVa-Arg-OH] | – |
| > 20000 | > 20000 | 650 | 270 | 167 ± 13.4 | CCC[C@H](NC(=O)[C@@H](CO)NS(C)(=O)=O)C(=O)N[C@@H](CCCNC(=N)N)C(=O)O [Compound 15, CH3PhSO2-D-Ser-NVa-Arg-OH] (Ms-[dS]-[Nva]-Arg-OH; N-terminus and C-terminus assumed) | – |
| > 20000 | > 20000 | 490 | 260 | 137 ± 11 | CCC[C@H](NC(=O)[C@H](N)CO)C(=O)N[C@@H](CCCNC(=N)N)C(=O)NCCCCCN [Compound 16, H-D-Ser-NVa-Arg-NH-(CH2)5-NH2] | – |
| > 20000 | > 20000 | 510 | 250 | 139 ± 11.1 | N=C(N)NCCC[C@H](NC(=O)CNC(=O)[C@H](N)CO)C(=O)NCCCCCN [Compound 17, H-D-Ser-Gly-Arg-NH-(CH2)5-NH2] | – |
| – | – | – | – | – | C[C@H](NC(=O)[C@H](N)CO)C(=O)N[C@@H](CCCNC(=N)N)C(=O)O [H-D-Ser-Ala-Arg-OH] (H-[dS]-Ala-Arg-OH) | Ki (urokinase [4]): 180 µM; IC50 (urokinase [5]; [7]): 2000 µM |
| – | – | – | – | – | N=C(N)NCCC[C@H](NC(=O)CNC(=O)[C@H](N)CO)C(=O)O [H-D-Ser-Gly-Arg-OH] (H-[dS]-Gly-Arg-OH) | Ki (urokinase [4]): 90 µM; IC50 (urokinase [5]; [7]): 1000 µM |
| – | – | – | – | – | Ac-Leu-Leu-Arg-COCHO | Ki (plasmin [6]): 4.9 µM |
| – | – | – | – | – | Glu-Gly-Arg-CH2Cl | Ki (urokinase [5]; ref Lijnen et al. [1987]): 5 µM |
| – | – | – | – | – | H-D-Ser-Ala-Arg-NH-(CH2)5-NH2 | Ki (urokinase [5]; ref Markowska et al. [2010]): 6.3 µM |
| – | – | – | – | – | H-D-Ser-NVa-Arg-OH | Ki (urokinase [5]; ref Markowska et al. [2011]): 0.85 µM |
| – | – | – | – | – | phenethylsulfonyl-D-Ser-Ala-Arg-H | IC50 (urokinase [5]; ref Tamura et al. [2000], read-out: IC50 uPA): 0.0031 µM |
| – | – | – | – | – | α-tolyl-SO2-D-Ser-Ala-Arg-OH | Ki (urokinase [5]; ref Markowska et al. [2010]): 24 µM |
